From US12686668B2, “Leukotriene synthesis inhibitors” (Naegis Pharmaceuticals Inc., priority 2019, dated 2026)

Legend:
[1] = target: T1, recombinant human leukotriene A4 hydrolase enzyme (Homo sapiens, UniProt P09960); assay: Amino-peptidase assay, PGP; assay type: biochemical; conditions: concentration not given
T1 construct: purchased Cayman Chemical 10007817
T1 sequence (P09960 1-611): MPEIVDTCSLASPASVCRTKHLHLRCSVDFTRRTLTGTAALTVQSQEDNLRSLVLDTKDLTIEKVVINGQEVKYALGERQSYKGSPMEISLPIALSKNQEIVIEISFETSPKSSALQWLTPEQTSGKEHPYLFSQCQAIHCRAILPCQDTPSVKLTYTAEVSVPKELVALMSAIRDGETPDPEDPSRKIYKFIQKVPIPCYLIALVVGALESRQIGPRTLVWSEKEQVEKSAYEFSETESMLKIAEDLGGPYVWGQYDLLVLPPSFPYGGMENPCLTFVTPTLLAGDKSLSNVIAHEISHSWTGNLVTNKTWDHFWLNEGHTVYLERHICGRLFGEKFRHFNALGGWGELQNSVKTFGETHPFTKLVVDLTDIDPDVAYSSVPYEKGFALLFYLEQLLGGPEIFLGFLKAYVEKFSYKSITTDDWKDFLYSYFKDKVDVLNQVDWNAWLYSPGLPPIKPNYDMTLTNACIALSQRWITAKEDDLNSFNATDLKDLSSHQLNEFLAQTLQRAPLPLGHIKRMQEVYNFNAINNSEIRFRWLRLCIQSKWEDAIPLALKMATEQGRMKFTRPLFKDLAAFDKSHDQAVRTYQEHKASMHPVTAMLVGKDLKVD
Protocol: A series of compound concentrations were pre-incubated with 50 ng of recombinant human leukotriene A4 hydrolase enzyme (Cayman Chemical, 10007817) in 50 L assay buffer (50 mM Tris-HCl, 100 mM KCl). The reaction was stimulated by adding 50 L 1 mM proline-glycine-proline (Bachem, H-7284) and incubated for 30 minutes at 37° C. The reaction was stopped with the addition of 150 μL of glacial acetic acid. The amount of free proline released from the peptide was detected through a reaction with ninhydrin. 150 μL of 25 mg/mL ninhydrin (BDH, B10132) in 60:40 acetic acid/water was added to each sample, and boiled for 30 minutes at 100° C. and once samples had cooled to room temperature, 350 μL of toluene was added to extract the ninhydrin reaction product. The amount of free proline was determined by comparing the absorbance at 520 nm to the L-proline (Sigma Aldrich, 81709) reference standard. Inhibition of free proline production was calculated based on control samples.

[2] = tested on: LTB4 production in MC/9 cells; assay: MC/9 HPLC assay, inhibition of LTB4 production; assay type: cell-based; conditions: Mus musculus, MC9, Table 2 column 4, no concentration in head (1 μM according to b732), read-out: % Inhibition LTB4
Protocol: (§1) Cultured MC/9 cells (3×10^6 cells) in 1 mL HBSS were pre-incubated with a series of concentrations of compound solubilized in DMSO for 30 minutes. Production of leukotrienes were stimulated with the addition of 1 μM calcium ionophore (A23187), diluted from a 4 mM DMSO stock in HBSS, and incubated at room temperature for 20 minutes. The reaction was stopped with the addition of 500 μL of methanol containing 20 ng/mL prostaglandin B2 as an internal standard. Samples were collected and stored at −20° C. at least 2 hr or overnight before centrifuged at 13,000 rpm for 15 minutes and loaded onto C18 SEP-PAK columns (Canadian Lifesciences IS12000) for solid phase extraction. The leukotrienes were analyzed by HPLC using an ACE C18 column (4.5 mm×150 mm, 5 m) eluted with acetonitrile/methanol/water mixture with H3PO4, pH 3.5 (37:26:37) with a flow rate of 1.8 mL/min. The amount of LTB4 (Cayman Chemical, 20110) and LTC4 (Cayman Chemical, 20210) were calculated based on reference standards and the level of inhibition of LTB4 production induced by the test compounds was calculated relative to control samples. The results are provided in Table 2, where Compound No. refers to the compounds identified in Table 1.

[3] = tested on: LTC4 production in MC/9 cells; assay: MC/9 HPLC assay, inhibition of LTC4 production; assay type: cell-based; conditions: Mus musculus; for inhibition at 3 µM: MC9, 3 μM, A23187 stimulated; for inhibition at 1 µM: MC9, Table 2 column 3, no concentration in head (1 μM according to b732), read-out: % Inhibition LTC4
Protocol: as §1

[4] = tested on: LTB4 production in porcine or human whole blood; assay: Whole blood HPLC assay, inhibition of LTB4 production; assay type: cell-based; conditions: 5 point curve, porcine or human whole blood (not specified)
Protocol: Porcine or human whole blood (1 mL) was pre-incubated with a series of concentrations of compound solubilized in DMSO for 30 minutes. Production of leukotrienes were stimulated with the addition of 20 μM calcium ionophore (A23187), diluted from a 4 mM DMSO stock in HBSS, and incubated at room temperature for 20 minutes. In porcine blood 20 μM arachidonic acid was added in addition to the calcium ionophore. The blood was centrifuged at 2,000 rpm for 15 minutes, and the plasma fraction removed for further processing. Plasma samples were diluted with 500 μL acidified water (HCl pH 3.0) and loaded onto C18 SEP-PAK columns (Canadian Lifesciences IS12000) for solid phase extraction. The leukotrienes were analyzed by HPLC using an ACE C18 column (4.5 mm×150 mm, 5 m) eluted with acetonitrile/methanol/water mixture with H3PO4, pH 3.5 (37:26:37) with a flow rate of 1.8 mL/min. The amount of LTB4 (Cayman Chemical, 20110) was calculated based on reference standards and the level of inhibition of LTB4 production induced by the test compounds was calculated relative to control samples. The results provided in Table 3 are IC50 values calculated based on a 5 point curve, where Compound No. refers to the compounds identified in Table 1.

[5] = target: T1, recombinant human leukotriene A4 hydrolase enzyme; assay: Amino-peptidase assay, alanine-4-nitroanalide; assay type: biochemical; conditions: negative values = augmented peptidase activity, read-out: % Inhibition aminopeptidase-Alanine-4-nitroanalide activity of LTA4H (3 μM)
Protocol: A series of compound concentrations were pre-incubated in the absence of light with 0.5 μg of recombinant human leukotriene A4 hydrolase enzyme (Cayman Chemical 10007817) in 50 μL assay buffer (50 mM Tris-HCl, 100 mM KCl). The reaction was stimulated by adding 50 μL 6 mM alanine-4-nitroanilide (Sigma Aldrich A9325) in assay buffer. The amount of amino-peptidase activity was measured by determining the change in absorbance at 405 nm due to 4-nitroanaline production and comparing the rate of change to a reference standard (Sigma Aldrich 185310). Amino-peptidase activity was compared to control samples and the level of inhibition was calculated. Compounds that augment peptidase activity are represented by negative values.

| % Inhibition aminopeptidase-PGP activity of LTA4H [1] | IC50 [4] | inhibition at 3 µM [5] | SMILES | inhibition at 1 µM [2] | inhibition at 3 µM [3] | inhibition at 1 µM [3] |
| --- | --- | --- | --- | --- | --- | --- |
| <25% | – | – | CCC(=O)CCc1ccc(Oc2nc3ccccc3s2)c(OC(C)C)c1 [Compound 112, 1-[4-(1,3-benzothiazol-2-yloxy)-3-(iso-propyloxy)-phenyl]pentan-3-one] | – | – | – |
| – | 1000 to 10000 nM | – | CCNC(c1ccc(Oc2nc3ccccc3s2)c(OC)c1)C(F)(F)F (stereo not drawn) [Compound 138, 1-[4-(1,3-benzothiazol-2-yloxy)-3-methoxyphenyl]-N-ethyl-2,2,2-trifluoroethanamine] | 10 to 30% | 70 to 90% | 30 to 50% |
| – | 1000 to 10000 nM | – | CC(O)CCc1ccc(Oc2nc3ccccc3s2)cc1 (stereo not drawn) [Compound 141, 4-[4-(1,3-benzothiazol-2-yloxy)phenyl]butan-2-ol] | > 90% | – | 10 to 30% |
| – | 1000 to 10000 nM | < 25% | CCC(C)(O)CCc1ccc(Oc2nc3ccccc3o2)cc1 (stereo not drawn) [Compound 146, 1-[4-(1,3-benzoxazol-2-yloxy)phenyl]-3-methylpentan-3-ol] | > 90% | – | 10 to 30% |
| 25-50% | – | 50 to 75% | CC(O)(CCc1ccc(Oc2nc3ccccc3o2)cc1)c1ccccc1 (stereo not drawn) [Compound 147, 4-[4-(1,3-benzoxazol-2-yloxy)phenyl]-2-phenylbutan-2-ol] | > 90% | – | 30 to 50% |
| 25-50% | – | < 25% | CCC(=O)CCc1ccc(Oc2nc3ccccc3s2)c(Cl)c1 [Compound 149, 1-[4-(1,3-benzothiazol-2-yloxy)-3-chlorophenyl]pentan-3-one] | 50 to 70% | – | 30 to 50% |
| 25-50% | – | < 25% | CCC(=O)CCc1ccc(Oc2nc3ccccc3s2)c(F)c1 [Compound 152, 1-[4-(1,3-benzothiazol-2-yloxy)-3-fluorophenyl]-pentan-3-one] | 50 to 70% | 30 to 50% | 30 to 50% |
| – | > 10000 nM | – | CCC(O)(CCc1ccc(Oc2nc3ccccc3s2)c(C(F)(F)F)c1)C(F)(F)F (stereo not drawn) [Compound 155, 1-[4-(1,3-benzothiazol-2-yloxy)-3-(trifluoromethyl)-phenyl]-3-(trifluoromethyl)-pentan-3-ol] | 10 to 30% | – | < 10% |
| – | 100 to 1000 nM | – | CC(CCc1ccc(Oc2nc3ccccc3s2)cc1)N1CCCC1 (stereo not drawn) [Compound 156, 2-{4-[3-(pyrrolidin-1-yl)butyl]phenoxy}-1,3-benzothiazole] | > 90% | – | < 10% |
| – | 1000 to 10000 nM | – | CC(CCc1ccc(Oc2nc3ccccc3s2)cc1)N1CCCC1C(=O)O (stereo not drawn) [Compound 157, 1-{4-[4-(1,3-benzothiazol-2-yloxy)phenyl]butan-2-yl}pyrrolidine-2-carboxylic acid] | 70 to 90% | – | < 10% |
| – | 100 to 1000 nM | > 75% | c1ccc2sc(Oc3ccc(CN4CCCC4)cc3)nc2c1 [Compound 164, 2-[4-(pyrrolidin-1-ylmethyl)phenoxy]-1,3-benzothiazole] | – | < 10% | – |
| – | 100 to 1000 nM | < 25% | OC(c1ccc(Oc2nc3ccccc3s2)cc1)C(F)(F)F (stereo not drawn) [Compound 166, 1-[4-(1,3-benzothiazol-2-yloxy)phenyl]-2,2,2-trifluoroethanol] | – | 30 to 50% | – |
| – | > 10000 nM | > 75% | OC(c1ccc(Oc2nc3ccccc3s2)c(Cl)c1)C(F)(F)F (stereo not drawn) [Compound 167, 1-[4-(1,3-benzothiazol-2-yloxy)-3-chlorophenyl]-2,2,2-trifluoroethanol] | 10 to 30% | 10 to 30% | 10 to 30% |
| 70-90% | – | 70 to 90% | CNC(c1ccc(Oc2nc3ccccc3s2)cc1)C(F)(F)F (stereo not drawn) [Compound 178, 1-[4-(1,3-benzothiazol-2-yloxy)phenyl]-2,2,2-trifluoro-N-methylethanamine] | – | < 10% | – |
| >75% | – | > 75% | OC(c1ccc(Oc2nc3c(F)cc(F)cc3s2)cc1)C(F)(F)F (stereo not drawn) [Compound 179, 1-{4-[(4,6-difluoro-1,3-benzothiazol-2-yl)oxy]phenyl}-2,2,2-trifluoroethanol] | – | 10 to 30% | – |
| >75% | – | 0 to 50% | CC(O)(c1ccc(Oc2nc3c(F)cc(F)cc3s2)cc1)C(F)(F)F (stereo not drawn) [Compound 181, 2-{4-[(4,6-difluoro-1,3-benzothiazol-2-yl)oxy]phenyl}-1,1,1-trifluoropropan-2-ol] | – | < 10% | – |
| >75% | – | > 75% | CCC(O)CCc1ccc(Oc2nc3ccccc3s2)c(OC2CCCC2)c1 (stereo not drawn) [Compound 186, 1-[4-(1,3-benzothiazol-2-yloxy)-3-(cyclopentyloxy)-phenyl]pentan-3-ol] | – | 70 to 90% | – |
| 50-75% | – | > 75% | CCC(O)CCc1ccc(Oc2nc3ccccc3s2)c(OCC2CC2)c1 (stereo not drawn) [Compound 187, 1-[4-(1,3-benzothiazol-2-yloxy)-3-(cyclopropylmethoxy)-phenyl]-pentan-3-ol] | – | 50 to 70% | – |
| 25-50% | – | < 25% | CCC(CCc1ccc(Oc2nc3ccccc3s2)c(OC)c1)N1CCN(C)CC1 (stereo not drawn) [Compound 188, 1-[4-(1,3-benzothiazol-2-yloxy)-3-methoxyphenyl]-3-(4-methylpiperazinyl-1yl)pentane] | – | 10 to 30% | – |
| 25-50% | – | < 25% | CC(CCc1ccc(OCc2ccc3ccccc3n2)cc1)N1CCCC1 (stereo not drawn) [Compound 190] | – | 30 to 50% | – |
